“And” between values parts separate entries of the source, which are not always exact repeats. Identical values can stand only once. Like-named read-outs stand apart in the source and are kept apart here.

Results on seven compounds are retold here after PMC6440977, “Nucleoside analogue activators of cyclic AMP-independent protein kinase A of Trypanosoma” (Nature Communications, 2019).

The target of test [1] is T. brucei PKAR-PKAC1 holoenzyme (Trypanosoma brucei, UniProt Q9GU80). The test is described as follows: biochemical. The test is classed as biochemical. Particulars: for In vitro kinase assay: technical replicates.
Test [2] relates to T. brucei BSF cells (WT). The test is described as follows: Alamar blue cell viability assay, wild type.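 On all read-outs here: trypanosomes seeded at 5×10^3 per ml and grown 72 h with compound, then resazurin 0.5 mM added for 4 h as the viability read-out.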 Particulars: for IC50: 72 h, read-out: IC50 growth WT; for EC50: wild type cells.
In test [3] the test system is T. brucei ∆pkar/∆pkar (pkar KO) cells. The test is described as follows: microbe, parasite or virus in culture. The test is classed as cell-based, Trypanosoma brucei.
Test [4] deals with T. brucei PKA (Trypanosoma brucei brucei, UniProt Q9GU80). The test can be described thus: In vivo PKA reporter assay (VASP Ser-157 phosphorylation, western blot).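 Further: T. brucei cells expressing human VASP as heterologous PKA substrate, compound exposure at 37 °C, western blot of phospho (50 kDa) versus unphosphorylated (46 kDa) VASP band.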 The test is classed as cell-based. The conditions noted are these: read-out: EC50 in vivo PKA assay, VASP reporter, 15 min treatment, mean ± SD.
Test [5] concerns T. brucei PKA holoenzyme (HA-PKAC2). The test is classed as biochemical, Trypanosoma brucei. The conditions noted are these: control without cyclic nucleotide, 5 µM PKI(5-24).
In test [6] the test system is T. brucei PKA holoenzyme (Ty1-PKAC1). The test is classed as biochemical, Trypanosoma brucei. Particulars: for in vitro kinase assay [CPM] / in vitro kinase assay [CPM], PKI: 5 µM PKI(5-24); for in vitro kinase assay [CPM], PKI: control without cyclic nucleotide.
Test [7] relates to T. brucei PKA holoenzyme (PKAR-Ty1). Format: biochemical, Trypanosoma brucei. The conditions noted are these: control without cyclic nucleotide, 5 µM PKI(5-24).
The mark [8] stands for this setting: Trypanosoma brucei, 72 h, read-out: IC50 growth pkar KO.
[9] abbreviates: read-out: EC50, Alamar blue cell viability assay, WT, individual replicate results.
[10] abbreviates: read-out: EC50, Alamar blue cell viability assay, KO; individual replicate results; pkar KO cells.

Sequence of T. brucei PKAR-PKAC1 holoenzyme (Q38DR5 entry or part of it): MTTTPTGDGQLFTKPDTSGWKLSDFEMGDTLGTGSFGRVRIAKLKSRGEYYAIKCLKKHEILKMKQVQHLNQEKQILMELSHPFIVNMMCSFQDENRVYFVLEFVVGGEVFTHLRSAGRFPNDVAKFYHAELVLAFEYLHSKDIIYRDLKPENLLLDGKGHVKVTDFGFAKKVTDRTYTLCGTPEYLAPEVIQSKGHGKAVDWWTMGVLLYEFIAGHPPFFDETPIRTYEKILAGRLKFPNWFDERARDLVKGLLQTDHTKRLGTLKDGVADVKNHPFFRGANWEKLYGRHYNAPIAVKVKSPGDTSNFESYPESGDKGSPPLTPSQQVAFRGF
Sequence of T. brucei PKAR-PKAC1 holoenzyme (Q9GU80 entry or part of it): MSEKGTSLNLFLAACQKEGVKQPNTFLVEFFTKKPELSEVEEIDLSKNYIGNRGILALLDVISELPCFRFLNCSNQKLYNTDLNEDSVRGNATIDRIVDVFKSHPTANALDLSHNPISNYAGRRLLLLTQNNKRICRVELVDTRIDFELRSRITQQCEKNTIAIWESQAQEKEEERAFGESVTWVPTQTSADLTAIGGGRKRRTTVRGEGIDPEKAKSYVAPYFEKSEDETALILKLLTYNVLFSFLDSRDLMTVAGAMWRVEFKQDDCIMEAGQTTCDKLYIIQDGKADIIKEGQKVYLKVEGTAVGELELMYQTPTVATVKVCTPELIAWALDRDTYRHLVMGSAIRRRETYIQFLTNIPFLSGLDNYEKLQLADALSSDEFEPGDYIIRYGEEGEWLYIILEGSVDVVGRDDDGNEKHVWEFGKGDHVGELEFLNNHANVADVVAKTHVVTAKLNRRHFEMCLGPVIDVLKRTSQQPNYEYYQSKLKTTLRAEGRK
Sequence of T. brucei PKA (Q38DS1 entry or part of it): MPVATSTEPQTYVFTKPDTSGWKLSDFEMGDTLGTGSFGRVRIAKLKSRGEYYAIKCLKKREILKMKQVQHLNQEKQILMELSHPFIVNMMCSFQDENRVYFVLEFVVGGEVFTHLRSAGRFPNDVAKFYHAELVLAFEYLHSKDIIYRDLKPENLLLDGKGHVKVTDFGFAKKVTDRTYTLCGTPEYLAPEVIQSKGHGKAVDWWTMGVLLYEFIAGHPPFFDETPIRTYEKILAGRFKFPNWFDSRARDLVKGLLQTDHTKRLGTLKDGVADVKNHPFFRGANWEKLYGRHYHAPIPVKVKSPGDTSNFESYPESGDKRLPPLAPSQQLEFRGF
Sequence of T. brucei PKA (Q38DR5 entry or part of it, further chain): as the sequence (Q38DR5 entry or part of it) above
Sequence of T. brucei PKA (Q9GU80 entry or part of it): as the sequence (Q9GU80 entry or part of it) above

For the compound `NC(=O)c1cn([C@@H]2O[C@H](CO)[C@@H](O)[C@H]2O)c2ncnc(N)c12` [Sangivamycin, 7-Carboxamido-7-deazaadenosine], the half-maximal effective concentration (EC50) in test [1] came to 10800 nM; in test [4] it was 39300 ± 5600 nM; in test [4] (listed as sangivamycin) it was 39000 nM. Also, the “In vitro kinase assay” value is 0.15 U/ml and 0.17 U/ml in test [1] (0.049 µM); 0.15 U/ml in test [1] (0.098 µM); 0.19 U/ml and 0.18 U/ml in test [1] (0.195 µM); 0.2 U/ml and 0.15 U/ml in test [1] (0.391 µM); 0.17 U/ml in test [1] (0.781 µM); 0.2 U/ml and 0.16 U/ml in test [1] (1.563 µM). In addition, the “In vitro kinase assay” value was 0.22 U/ml and 0.24 U/ml in test [1] (3.125 µM); 0.29 U/ml and 0.28 U/ml in test [1] (6.25 µM); 0.33 U/ml and 0.31 U/ml in test [1] (12.5 µM); 0.44 U/ml and 0.4 U/ml in test [1] (25 µM); 0.44 U/ml in test [1] (50 µM). In addition, the concentration for half-maximal inhibition (IC50) worked out at 713 ± 40 nM in test [2] (Trypanosoma brucei) and 1550 ± 171 nM in test [3] (setting [8]).
Turning to `Nc1ncnc2c1c(Br)cn2[C@@H]1O[C@H](CO)[C@@H](O)[C@H]1O` [5BrTu], the half-maximal effective concentration (EC50) is 615 nM and 1550 nM and 1120 nM and 583 nM and 1080 nM and 749 nM and 605 nM and 692 nM in test [2] (setting [9]); 680 nM and 1190 nM and 1260 nM and 1090 nM and 619 nM and 797 nM and 1170 nM in test [3] (setting [10]).
`NC(=O)c1cn([C@@H]2O[C@H](CO)[C@@H](O)[C@H]2O)c2ncnc(N)c12` [Sangi]: the EC50 is 697 nM in test [2] (Trypanosoma brucei, read-out: EC50, Alamar blue cell viability assay, WT, individual replicate results); 895 nM and 530 nM and 730 nM and 713 nM and 726 nM and 707 nM in test [2] (setting [9]); 1570 nM and 868 nM and 2200 nM and 1910 nM and 1630 nM and 1940 nM and 1360 nM and 902 nM in test [3] (setting [10]).
On to `Nc1ncnc2c1c(Br)cn2[C@@H]1O[C@H](CO)[C@@H](O)[C@H]1O` [5-Br-Tu, 7-Bromo-7-deazaadenosine], for which the figures for the EC50 in test [1] and in test [4] were 1700 ± 1400 nM and 625 ± 66 nM, respectively. In addition, the “In vitro kinase assay” value in test [1] (0.049 µM) is 0.15 U/ml and 0.17 U/ml; in test [1] (0.098 µM), 0.25 U/ml and 0.22 U/ml; in test [1] (0.195 µM), 0.27 U/ml and 0.24 U/ml; in test [1] (0.391 µM) it was 0.37 U/ml and 0.39 U/ml; in test [1] (0.781 µM), 0.53 U/ml and 0.48 U/ml; in test [1] (1.563 µM), 0.72 U/ml and 0.59 U/ml. For the same compound, the “In vitro kinase assay” value in test [1] (3.125 µM) is 0.85 U/ml and 0.72 U/ml; in test [1] (6.25 µM) it was 0.89 U/ml and 1.03 U/ml; in test [1] (12.5 µM) it was 1.09 U/ml and 1.13 U/ml; in test [1] (25 µM), 1.41 U/ml and 1.21 U/ml; in test [1] (50 µM), 1.29 U/ml and 1.22 U/ml. Besides, the half-maximal inhibitory concentration (IC50) came to 874 ± 122 nM in test [2] (Trypanosoma brucei) and 1010 ± 95 nM in test [3] (setting [8]).
Regarding `OCCN(CCO)c1nc(N2CCCCC2)c2nc(N(CCO)CCO)nc(N3CCCCC3)c2n1` [Dipy], the EC50 in test [2] (setting [9]) was 12100 nM and 6380 nM and 10700 nM and 10600 nM and 10900 nM and 16800 nM and 6540 nM and 7480 nM and 7070 nM and 13400 nM and 7420 nM; in test [3] (individual replicate results; pkar KO cells; read-out: EC50, Alamar blue cell viability assay, KO), 12400 nM and 21900 nM and 24900 nM and 25200 nM and 9930 nM and 13600 nM and 21100 nM and 14900 nM and 8890 nM and 13300 nM and 13100 nM.
With PKI(5–24), the “in vitro kinase assay [CPM], PKI” value came out at 483.2 CPM in test [5], 963.87 CPM in test [6] (Supp Fig 3b), 528.13 CPM in test [6] (Supp Fig 3c) and 1399.6 CPM in test [7]. Also, the “in vitro kinase assay [CPM]” value in test [6] (Ty1-PKAC1#1) stood at 1999.9 CPM; in test [6] (Ty1-PKAC1#2), 1386.5 CPM; in test [6] (Ty1-PKAC1-dead#11), 834.7 CPM; in test [6] (Ty1-PKAC1-dead#12) it was 571.7 CPM; in test [6] (Ty1-PKAC1-dead#14), 1493.5 CPM; in test [6] (pull down from WT cells (negative control)) it was 398.6 CPM. Moreover, the “phosphorylation of kemptide, in words” value in test [6] (5 µM inhibitor) was “inhibited”.
As for `Nc1ncnc2c1c(I)cn2[C@@H]1O[C@H](CO)[C@@H](O)[C@H]1O` [5ITu], the EC50 is 134 nM and 378 nM and 467 nM and 417 nM and 291 nM and 390 nM and 317 nM and 247 nM in test [2] (setting [9]); 365 nM and 366 nM and 542 nM and 168 nM and 345 nM and 276 nM and 265 nM and 448 nM in test [3] (setting [10]).

In general, EC50 refers to the concentration giving half of the maximal effect. Usually IC50 stands for the concentration at which inhibition is half-maximal.
